Results as given in the supplement of paper PMC11451515.

Tested on: SEM cells
Assay: cell viability relative to DMSO control; higher = less cytotoxic
Details: 48 h
Method in brief: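 Cells were incubated for 48 h at 37°C before CellTiter-Glo One luminescence was read. The cells were NOMO1 or SEM (500 cells/well) or P12-Ichikawa (1000 cells/well) leukemia cells, adapted for at least four passages in each medium and seeded in 1536-well plates (5 μl). Dosing used library compounds in DMSO applied by pin over 11 threefold points, 47 μM to 0.79 nM. Viability is the per-plate percentage of DMSO wells, with cell-free wells as background.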

[1] = HPLM + 10% dialyzed FBS, 0.000781 µM
[2] = HPLM + 10% dialyzed FBS, 0.00234 µM
[3] = HPLM + 10% dialyzed FBS, 0.00702 µM
[4] = HPLM + 10% dialyzed FBS, 0.0211 µM
[5] = HPLM + 10% dialyzed FBS, 0.0632 µM
[6] = HPLM + 10% dialyzed FBS, 0.19 µM
[7] = HPLM + 10% dialyzed FBS, 0.569 µM
[8] = HPLM + 10% dialyzed FBS, 1.71 µM
[9] = HPLM + 10% dialyzed FBS, 5.12 µM
[10] = HPLM + 10% dialyzed FBS, 15.4 µM
[11] = HPLM + 10% dialyzed FBS, 46.1 µM
[12] = RPMI 5 mM glucose + 10% FBS, 0.000781 µM
[13] = RPMI 5 mM glucose + 10% FBS, 0.00234 µM
[14] = RPMI 5 mM glucose + 10% FBS, 0.00702 µM
[15] = RPMI 5 mM glucose + 10% FBS, 0.0211 µM
[16] = RPMI 5 mM glucose + 10% FBS, 0.0632 µM
[17] = RPMI 5 mM glucose + 10% FBS, 0.19 µM
[18] = RPMI 5 mM glucose + 10% FBS, 0.569 µM
[19] = RPMI 5 mM glucose + 10% FBS, 1.71 µM
[20] = RPMI 5 mM glucose + 10% FBS, 5.12 µM
[21] = RPMI 5 mM glucose + 10% FBS, 15.4 µM
[22] = RPMI 5 mM glucose + 10% FBS, 46.1 µM
[23] = RPMI 5 mM glucose + 10% dialyzed FBS, 0.000781 µM
[24] = RPMI 5 mM glucose + 10% dialyzed FBS, 0.00234 µM
[25] = RPMI 5 mM glucose + 10% dialyzed FBS, 0.00702 µM
[26] = RPMI 5 mM glucose + 10% dialyzed FBS, 0.0211 µM
[27] = RPMI 5 mM glucose + 10% dialyzed FBS, 0.0632 µM
[28] = RPMI 5 mM glucose + 10% dialyzed FBS, 0.19 µM
[29] = RPMI 5 mM glucose + 10% dialyzed FBS, 0.569 µM
[30] = RPMI 5 mM glucose + 10% dialyzed FBS, 1.71 µM
[31] = RPMI 5 mM glucose + 10% dialyzed FBS, 5.12 µM
[32] = RPMI 5 mM glucose + 10% dialyzed FBS, 15.4 µM
[33] = RPMI 5 mM glucose + 10% dialyzed FBS, 46.1 µM

SMILES | cell viability [1] | cell viability [2] | cell viability [3] | cell viability [4] | cell viability [5] | cell viability [6] | cell viability [7] | cell viability [8] | cell viability [9] | cell viability [10] | cell viability [11] | cell viability [12] | cell viability [13] | cell viability [14] | cell viability [15] | cell viability [16] | cell viability [17] | cell viability [18] | cell viability [19] | cell viability [20] | cell viability [21] | cell viability [22] | cell viability [23] | cell viability [24] | cell viability [25] | cell viability [26] | cell viability [27] | cell viability [28] | cell viability [29] | cell viability [30] | cell viability [31] | cell viability [32] | cell viability [33]
CN(C)c1ccc(Nc2nc(N)n(C(=O)c3c(F)cccc3F)n2)cc1 | 105% | 118% | 110% | 92.2% | 111% | 117% | 97.1% | 69% | 43.9% | 64.7% | 56.1% | 108% | 110% | 123% | 96.8% | 118% | 120% | 90.2% | 42.7% | 32.3% | 38% | 48.7% | 102% | 118% | 117% | 76.3% | 142% | 127% | 95.5% | 61.2% | 34.8% | 40.5% | 40.6%
N[C@@H](CC(=O)N1CCn2c(nnc2C(F)(F)F)C1)Cc1cc(F)c(F)cc1F | 111% | 113% | 110% | 118% | 105% | 105% | 99.8% | 117% | 107% | 41.9% | 93.3% | 100% | 104% | 98.1% | 102% | 132% | 113% | 106% | 112% | 109% | 50% | 96.4% | 96.9% | 118% | 103% | 97.4% | 103% | 108% | 96.8% | 98.8% | 92.3% | 40.1% | 98.6%
Cc1[nH]c(/C=C2\C(=O)Nc3ccc([S+](=O)([O-])Cc4c(Cl)cccc4Cl)cc32)c(C)c1C(=O)N1CCC[C@@H]1CN1CCCC1 | 100% | 103% | 102% | 103% | 112% | 96.6% | 94.8% | 76.5% | 6.42% | 45.4% | 9.75% | 116% | 114% | 107% | 116% | 111% | 118% | 109% | 101% | 25.7% | 56.7% | 34% | 84.9% | 99.4% | 85.3% | 94.2% | 86.8% | 93.2% | 92.4% | 72.5% | 42% | 42.3% | 26.7%
COc1cc2ncnc(Nc3cccc(Br)c3)c2cc1OC | 85.1% | 84.7% | 94.3% | 94.7% | 102% | 98% | 114% | 118% | 114% | 103% | 91.5% | 113% | 87.9% | 102% | 131% | 122% | 119% | 113% | 136% | 121% | 110% | 89.9% | 75% | 75.2% | 86% | 97.4% | 110% | 103% | 120% | 110% | 104% | 96.3% | 78.6%
Cc1ncc([N+](=O)[O-])n1CCO | 100% | 94% | 104% | 104% | 112% | 105% | 103% | 111% | 118% | 100% | 108% | 104% | 118% | 103% | 111% | 118% | 109% | 109% | 117% | 121% | 105% | 104% | 107% | 109% | 123% | 122% | 114% | 146% | 127% | 115% | 122% | 124% | 130%
CC(C)(C)NC(=O)[C@H]1CC[C@H]2[C@@H]3CC[C@H]4NC(=O)\C=C/[C@]4(C)[C@H]3CC[C@]12C | 88.1% | 89.3% | 98.7% | 92% | 95.8% | 94.4% | 101% | 88.3% | 102% | 104% | 101% | 91.9% | 92.4% | 104% | 95.5% | 97.3% | 90.2% | 91.5% | 99.7% | 94% | 106% | 90.9% | 95.4% | 87.6% | 91.7% | 94.2% | 104% | 99.8% | 104% | 115% | 111% | 99.2% | 91.2%
Cc1cn(CCN2CCN(c3ccccc3-c3cc(C#N)cc(C(=O)NCCCN4CCCC4)c3)CC2)c2ccccc12 | 103% | 103% | 94.9% | 97.1% | 99.9% | 101% | 112% | 102% | 73.2% | 23.8% | 18.3% | – | – | – | – | – | – | – | – | – | – | – | 104% | 116% | 116% | 101% | 117% | 119% | 128% | 113% | 102% | 42% | 27%
CNCC(O)C(O)C(O)C(O)CO.O=C(O)c1ccc(-c2cc3cccnc3c(-c3ccc4nonc4c3)n2)cc1 | 104% | 103% | 99.1% | 115% | 114% | 115% | 114% | 131% | 112% | 92.7% | 92% | 100% | 107% | 109% | 108% | 115% | 108% | 115% | 111% | 103% | 108% | 88.8% | 98% | 97.6% | 120% | 103% | 108% | 101% | 112% | 103% | 127% | 87.6% | 65.8%
CN(C)C[C@@H]1CC[N]2C=C(C3=C2C=CC=C3)C/4=C(/C(=O)NC4=O)C5=C[N](CCO1)C6=C5C=CC=C6 | 87.6% | 56.8% | 105% | 110% | 97.5% | 99.6% | 91.2% | 81.4% | 79.2% | 56.8% | 2.57% | 118% | 59.2% | 97.3% | 97% | 99.2% | 119% | 105% | 89.1% | 77.7% | 49.6% | 2.71% | 97.7% | 47.9% | 102% | 105% | 107% | 105% | 93.7% | 87.2% | 73.2% | 51.8% | 2.49%
CN[S+](=O)([O-])CCc1ccc2[nH]cc(C3CCN(C)CC3)c2c1 | 78.4% | 74.3% | 87.2% | 98.7% | 97.7% | 108% | 91.8% | 99.7% | 109% | 111% | 110% | 84% | 67.4% | 90.8% | 101% | 94.1% | 103% | 92.5% | 105% | 110% | 99.7% | 88.8% | 87% | 75.4% | 99.6% | 86.6% | 93.3% | 99.4% | 90.9% | 97% | 84.2% | 92.9% | 85.5%
COC1=CC=C(C=C1)C2CC(=N/N2C3=CC=C(C=C3)[S+](N)([O-])=O)\C4=CC=CC=C4 (stereo not drawn) | 83.3% | 91.2% | 91.4% | 104% | 110% | 69.2% | 86.3% | 51.3% | 30.9% | 4.3% | 2.47% | 104% | 86.1% | 107% | 104% | 107% | 43.4% | 72.9% | 37.8% | 14.8% | 2.74% | 1.62% | 87.3% | 74% | 84.3% | 95.4% | 100% | 60.1% | 63.3% | 45.9% | 19% | 2.63% | 2.05%
C[C@@H]1CC[C@@]2(OC1)OC1CC3C4CC=C5CC(O)CCC5(C)C4CCC3(C)C1[C@@H]2C (stereo partly drawn) | 88.6% | 48% | 101% | 100% | 100% | 106% | 107% | 95.1% | 102% | 91.4% | 73.6% | 85.9% | 40.2% | 97.9% | 89.7% | 93.3% | 93.2% | 93.6% | 90.4% | 96.1% | 76.3% | 26.6% | 86.3% | 44.1% | 93.9% | 107% | 88.6% | 104% | 92.4% | 84.1% | 101% | 85.5% | 61.5%
O=C1CCc2ccc(OCCCCN3CCN(c4cccc(Cl)c4Cl)CC3)cc2N1 | 111% | 121% | 111% | 41% | 113% | 112% | 101% | 89.2% | 129% | 119% | 113% | 104% | 111% | 105% | 24.5% | 96.4% | 101% | 98.5% | 23.1% | 107% | 95.7% | 73.1% | 120% | 108% | 113% | 34.9% | 105% | 112% | 120% | 106% | 105% | 117% | 74.7%
COc1cc([C@@H]2c3cc4c(cc3[C@@H](O[C@@H]3O[C@@H]5CO[C@@H](c6cccs6)O[C@H]5[C@H](O)[C@H]3O)[C@H]3COC(=O)[C@H]23)OCO4)cc(OC)c1O | 94.9% | 85% | 89.8% | 95.1% | 83.1% | 85% | 90.8% | 16.4% | 77.9% | 15.3% | 4.57% | 96.7% | 120% | 110% | 103% | 101% | 84.7% | 78.7% | 14.4% | 80.1% | 12.6% | 5.23% | 86.7% | 88.9% | 79% | 85.1% | 79.6% | 68.6% | 66.8% | 9.66% | 63.4% | 11% | 3.6%
N#CC(=C(/N)Sc1ccccc1N)/C(C#N)=C(\N)Sc1ccccc1N | 95.9% | 101% | 129% | 133% | 116% | 123% | 111% | 113% | 94.1% | 100% | 83% | – | – | – | – | – | – | – | – | – | – | – | 116% | 120% | 139% | 151% | 113% | 118% | 111% | 98.2% | 93.2% | 89% | 57.3%
